# Measured values taken from patent US11840495B2, “Compositions and methods related to di-substituted bicyclo[2.2.1] heptanamine-containing compounds” (The Broad Institute, Inc., priority 2020, dated 2023).
# pEC50: −log10 of the molar value. Structures can show the parent of a compound that is named as a salt. Where two headings read alike, the source gives them in different places.
# Legend:
# MUC1-fs = assay: Immunofluorescence imaging of MUC1-fs in P cells (Example 2); type: cell-based; settings: for pEC50: 48 hr incubation, MUC1-fs; for Emax / ECMax (%): 48 hr; for Emax: DMSO = 0, JQ1 = −100% activity, in %; for ECMax (%): DMSO = 0, JQ1 (250 nM) = −100% activity
# Protocol: (§1) P cells were seeded 24 hr prior to compound treatment at a density of 12,000 cells/well in 384 well Cell Carrier Ultra plates (6057308, Perkin Elmer), pre-coated with 0.25 mg/mL Synthemax II SC Substrate (3535, Corning). Compounds were used at 5 doses (35, 3.5, 0.35, 0.035 and 0.0035 μM) for the primary screen and 10 doses (16, 5.6, 1.8, 0.6, 0.21, 0.07, 0.02, 0.008, 0.002 and 0.0008 μM) for the following screens. The compounds, in two replicates, were transferred from compound source plates to the cell plates using the HighRes Pin Tool. DMSO was used as a negative control and JQ1 (250 nM) (a bromodomain inhibitor) was chosen as a positive control, based on earlier studies showing its potent effect on reducing total MUC1 mRNA levels (data not shown). After 48 hr incubation, cells were fixed for 20 min in 4% PFA (Electron Microscopy Sciences) in PBS, washed twice, then permeabilized (10 min) with 0.5% Triton-X100 (X100-100ML, Sigma-Aldrich) in PBS and washed once more. Cells were blocked for 10 min at RT with Blocking solution (100 mM Tris HCL pH8; 150 mM NaCL; 5 g/L Blocking Reagent [11096176001, Roche]), then incubated 90 min at RT with one of the following primary antibodies in Roche Blocking solution: 1:500, monoclonal Fab-A-VSH anti-MUC1-fs, AbD22655.2, Bio-Rad; 1:2000, monoclonal mouse anti-MUC1 (214D4), 05-652-KC, Millipore; 1:1000, monoclonal, Rabbit anti-GM130 (D6B1) XP, 12480, Cell signaling technology. The primary antibody cocktail was incubated at RT for 1.5 hr, followed by four PBS wash cycles. The secondary antibody cocktail contained four components that were all prepared at a 1:1000 dilution in the Roche blocking solution and consisted of Alexa Fluor® 488-conjugated AffiniPure F(ab′)2 Fragment Goat anti-Human IgG, 109-546-097, Jackson Immunoresearch; Alexa Fluor® 647-conjugated Goat anti-Rabbit IgG, A-21246, Thermo Fisher Scientific®; Alexa Fluor® 546 Goat anti-mouse IgG, A-21123, Thermo Fisher Scientific® and Hoechst 33342 stain (62249, Thermo Fisher Scientific®). The secondary antibody cocktail was incubated at RT for 45 min, followed by four PBS wash cycles. Finally, plates were sealed with a Plate Loc plate and stored in Liconic incubator at 10° C. until imaging. Following image analysis, three parameters were selected, i) MUC1-fs and ii) MUC1-wt total cytoplasm intensity (averaged per cell) and iii) cell number as was detected by Hoechst 33342 stained nuclei. The levels of MUC1-fs and MUC1-wt found following DMSO and JQ1 were defined as 0 and −100% activity, respectively. The values obtained for all compounds were normalized accordingly. Cell number was normalized to DMSO control.
# MUC1-wt = assay: Immunofluorescence imaging of MUC1-wt in P cells (Example 2); type: cell-based; settings: for pEC50: 48 hr incubation, MUC1-wt; for WT EMax / WT ECMax (%): 48 hr; for WT EMax: DMSO = 0, JQ1 = −100% activity, in %; for WT ECMax (%): DMSO = 0, JQ1 (250 nM) = −100% activity
# Protocol: as §1
pEC50 (MUC1-fs; read-out: EC50),pEC50 (MUC1-wt; read-out: WT EC50),Compound,Emax (MUC1-fs),WT EMax (MUC1-wt),further results
5.22,< 4.80,"NC1C2CCC(C2)C12CCCC2 (racemic) [Compound 232, rac-spiro[bicyclo[2.2.1]heptane-2,1′-cyclopentan]-3-amine]",−68.6,6.6,
7.11,< 4.80,"CC1(N)C2CCC(C2)C12CCCC2 (racemic) [Compound 233, rac-3-methylspiro[bicyclo[2.2.1]heptane-2,1′-cyclopentan]-3-amine]",−86.9,21.8,
5.75,< 4.80,"Cl.NC1C2CCC(C2)C12CCOCC2 (racemic) [Compound 235, rac-tetrahydrospiro[bicyclo[2.2.1]heptane-2,4′-pyran]-3-amine hydrochloride]",−88.6,−6.6,
6.02,< 4.80,"NC1C2CCC(C2)C12CC1CC1C2 (racemic) [Compound 236, rac-spiro[bicyclo[2.2.1]heptane-2,3′-bicyclo[3.1.0]hexan]-3-amine]",−89.6,−20.3,
4.88,< 4.80,"CC12CC3(CC1(C)C2)C1CCC(C1)C3N.Cl (racemic) [Compound 237, rac-1′,5′-dimethylspiro[bicyclo[2.2.1]heptane-2,3′-bicyclo[3.1.0]hexan]-3-amine hydrochloride]",−45.1,−10.0,
8.22,5.74,"NC1C2CCC(C2)C12CC1CCC2C1 (racemic) [Compound 238-A, rac-2,2′-spirobi[bicyclo[2.2.1]heptan]-3-amine]",−108.1,38.7,
7.54,5.25,"NC1C2CCC(C2)C12CC1CCC2C1 (racemic) [Compound 238-B, rac-2,2′-spirobi[bicyclo[2.2.1]heptan]-3-amine]",−106.4,40.7,
< 4.80,< 4.80,"CC1CCC2(CC1C)C1CCC(C1)C2N (racemic) [Compound 240, rac-3′,4′-dimethylspiro[bicyclo[2.2.1]heptane-2,1′-cyclohexan]-3-amine]",−34.8,−11.1,
< 4.80,< 4.80,"CC1(CC2CC2)C2CCC(C2)C1N.Cl (racemic) [Compound 243-A, rac-3-(cyclopropylmethyl)-3-methylbicyclo[2.2.1]heptan-2-amine hydrochloride]",,,Emax (MUC1-fs; hydrochloride): −40.4; WT EMax (MUC1-wt; hydrochloride): 3.2
< 4.80,< 4.80,"CC1(CC2CC2)C2CCC(C2)C1N.Cl (racemic) [Compound 244, rac-3-(cyclopropylmethyl)-3-methylbicyclo[2.2.1]heptan-2-amine hydrochloride]",,,Emax (MUC1-fs; hydrochloride): −35.0; WT EMax (MUC1-wt; hydrochloride): −9.0
7.96,5.35,"CC(C)C1(C)C2CCC(C2)C1N.Cl (racemic) [Compound 245, rac-3-isopropyl-3-methylbicyclo[2.2.1]heptan-2-amine hydrochloride]",−90.2,106.2,
6.96,5.01,"Cl.NC1C2CCC(C2)C12CC=CC2 (racemic) [Compound 248, rac-spiro[bicyclo[2.2.1]heptane-2,1′-cyclopentan]-3′-en-3-amine hydrochloride]",−83.1,36.5,
5.66,< 4.80,"NC1C2CCC(C2)C12CCC(O)C2 (racemic) [Compound 249A, rac-3-aminospiro[bicyclo[2.2.1]heptane-2,1′-cyclopentan]-3′-ol]",−98.1,−7.2,
5.38,< 4.80,"NC1C2CCC(C2)C12CCC(O)C2 (racemic) [Compound 249B, rac-3-aminospiro[bicyclo[2.2.1]heptane-2,1′-cyclopentan]-3′-ol]",−72.5,−6.7,
5.20,< 4.80,"NC1C2CCC(C2)C12CCC(O)C2 (racemic) [Compound 249C, rac-3-aminospiro[bicyclo[2.2.1]heptane-2,1′-cyclopentan]-3′-ol]",−74.4,−11.9,

# The remaining lines, values behind:
Compound,pEC50 (MUC1-fs; read-out: EC50),pEC50 (MUC1-wt; read-out: WT EC50),Emax (MUC1-fs),WT EMax (MUC1-wt),further results
"Cl.NC(=O)C1CCCC2(C1)C1CCC(C1)C2N (racemic) [Compound 224, rac-3-aminospiro[bicyclo[2.2.1]heptane-2,1′-cyclohexane]-3′-carboxamide hydrochloride]",< 4.80,< 4.80,−17.0,−24.4,
"COCC1CCCC2(C1)C1CCC(C1)C2N.Cl (racemic) [Compound 225-1, rac-3′-(methoxymethyl)spiro[bicyclo[2.2.1]heptane-2,1′-cyclohexan]-3-amine hydrogen chloride]",< 4.80,< 4.80,−13.3,−15.8,
"COCC1CCCC2(C1)C1CCC(C1)C2N.Cl (racemic) [Compound 225-2, rac-3′-(methoxymethyl)spiro[bicyclo[2.2.1]heptane-2,1′-cyclohexan]-3-amine hydrogen chloride]",5.00,< 4.80,−20.7,−11.1,
"Cl.NC1C2CCC(C2)C12CC(O)C(O)C2 (racemic) [Compound 228, rac-3-aminospiro[bicyclo[2.2.1]heptane-2,1′-cyclopentane]-3′,4′-diol hydrochloride]",< 4.80,< 4.80,−15.1,−10.2,
"COC1CC2(CC1OC)C1CCC(C1)C2N.Cl (racemic) [Compound 229, rac-3′,4′-dimethoxyspiro[bicyclo[2.2.1]heptane-2,1′-cyclopentan]-3-amine hydrochloride]",4.81,< 4.80,−48.1,10.3,
"CC(=O)OC1CC2(CC1OC(C)=O)C1CCC(C1)C2N.Cl (racemic) [Compound 230, rac-3-aminospiro[bicyclo[2.2.1]heptane-2,1′-cyclopentane]-3′,4′-diyl diacetate hydrochloride]",< 4.80,< 4.80,−12.8,−16.1,
"Cl.NC1C2CCC(C2)C12CC1CCC2C1 (racemic) [Compound 238, rac-2,2′-spirobi[bicyclo[2.2.1]heptan]-3-amine hydrochloride]",,,−96.4,68.9,"pEC50 (MUC1-fs; hydrochloride, read-out: EC50): 7.49; pEC50 (MUC1-wt; hydrochloride, read-out: WT EC50): 6.13"
"Cl.NC1(c2ccccc2)C2CCC(C2)C12CCCC2 (racemic) [Compound 250, rac-3-phenylspiro[bicyclo[2.2.1]heptane-2,1′-cyclopentan]-3-amine hydrochloride]",5.11,< 4.80,−86.3,8.2,
"CC1(C)[C@H]2CC[C@H](C2)[C@H]1N (single isomer, unassigned) [Compound 201-P1, hydrochloride]",,,,,pEC50 (MUC1-fs; read-out: EC50(Spot)): 7.06; ECMax (%) (MUC1-fs): −94.91%; pEC50 (MUC1-wt; read-out: WT EC50 (Cytoplasm)): 4.99; WT ECMax (%) (MUC1-wt): 63%
"CC1(C)[C@@H]2CC[C@@H](C2)[C@@H]1N (single isomer, unassigned) [Compound 201-P2, hydrochloride]",,,,,pEC50 (MUC1-fs; read-out: EC50(Spot)): 6.33; ECMax (%) (MUC1-fs): −85.5%; pEC50 (MUC1-wt; read-out: WT EC50 (Cytoplasm)): 4.92; WT ECMax (%) (MUC1-wt): 68.51%
CCC1(CC)[C@H]2CC[C@H](C2)[C@H]1N [Compound 204-P1],,,,,pEC50 (MUC1-fs; read-out: EC50(Spot)): 7.52; ECMax (%) (MUC1-fs): −118.54%; pEC50 (MUC1-wt; read-out: WT EC50 (Cytoplasm)): 5.48; WT ECMax (%) (MUC1-wt): 197.55%
CCC1(CC)[C@@H]2CC[C@@H](C2)[C@@H]1N [Compound 204-P2],,,,,pEC50 (MUC1-fs; read-out: EC50(Spot)): 7.70; ECMax (%) (MUC1-fs): −90.34%; pEC50 (MUC1-wt; read-out: WT EC50 (Cytoplasm)): 5.96; WT ECMax (%) (MUC1-wt): 65.02%
